Earlier results on 2 molecules are cited in patent US8440723B2, “Metformin salts of salicylic acid and its congeners” (priority 2011, dated 2013).

Each structure is given as a SMILES string. Converted amounts (≈) assume the structure as drawn.

For data set [1] the following is noted: The Merck Index, Eleventh Edition.
The subject of data set [2] is patients with type 2 diabetes.

On to `O=C(O)c1ccccc1O` [salicylic acid], for which, in data set [1] (1 g of substance), the “volume of water in which 1 g is soluble” value was 460 mL. The water solubility in data set [1] is 2170 µg/mL (≈ 15.7 mM).
As for `O=C(Oc1ccccc1C(=O)O)c1ccccc1O` [salsalate, 2-(2-hydroxybenzoyl)oxybenzoic acid], the “solubility in water (in words)” value in data set [1] is reported as “practically insoluble in water”. Also, in data set [2], the “effect on blood glucose, HbA1c, triglycerides, free fatty acid and C-reactive protein” value was “lowers blood glucose, HbA1c levels, triglycerides, free fatty acid and C-reactive protein”.
